“Also recorded” adds a separate entry of the source.
Tests used:
[1] = test system: H3NT proteolysis in OCP-induced cells; assay: H3NT cleavage in OCP-induced cells (Western blot of chromatin with H3CT antibody); type: cell-based; details: RANKL-induced primary mouse OCP cells; shRNA transduction or 10 nM MMP-9-INI or 1.6 μM C646 for 3 days prior to differentiation; versus control shRNA or DMSO
[2] = test system: Nfatc1, Lif and Xpr1 expression; assay: RT-qPCR of osteoclastogenic genes Nfatc1, Lif and Xpr1 in 3-day OCP cells; type: cell-based, mouse; details: 3-day OCP-induced cells, with RANKL (FIG. 7B, 14)
Text: FIGS. 7A-7D. […] Distribution of H3NT-cleaved genes dependent on MMP-9 for activation (light) or repression (black) in 3-day OCP-induced cells (right). […] Enrichments were plotted relative to non-induced control shRNA OCP cells (first column) (y-axis). Star indicates H3NT cleavage.
FIG. 14. […] RT-qPCR was used to quantitatively measure fold expression changes (y-axis) of the osteoclastogenic genes Nfatc1, Lif and Xpr1 relative to non-induced control after normalization to β-actin expression.
To broadly examine the association between H3NT cleavage and gene expression, the RNA-Seq data was analyzed for the 1,233 H3NT-cleaved genes identified in control and MMP-9 depleted 3-day OCP-induced cells. […] To further investigate the MMP-9-dependent activation of these genes during osteoclastogenesis, RT-qPCR was performed in OCP cells transduced with a control or MMP-9-specific shRNA, or treated with DMSO control or a selective MMP-9 inhibitor, and cultured with or without RANKL for 3 days. […]
qPCR was performed using PerfeCta® SYBR Green FastMix (Quanta BIOSCIENCES) and an iCycler IQ5 (Bio-Rad). […] Specificity of amplification was determined by melting curve analysis and all samples were run in triplicate with results averaged.

[3] = target: T1, H3NT protease activity (MMP-9) of purified fractions #3-5 from 3-day OCP-induced cells (Mus musculus, UniProt P41245); assay: In vitro H3NT cleavage assay of purified nuclear fractions #3-5 with protease inhibitors (rH3 substrate, Western blot with H3CT antibody); type: biochemical; details: fractions incubated with protease inhibitors, Western blot with H3CT antibody (FIG. 1D, 1E)
T1 construct: both the pro- and active-forms of MMP-9 were detected in the nuclear compartment of 1-day OCP-induced cells; endogenous in cells; host or cells: primary mouse (C57BL/6) bone-marrow-derived OCP cells induced with RANKL; nuclear extracts / lysates
Text: (§1) To identify the protease responsible for H3NT cleavage observed in preosteoclasts, nuclear extracts from 3-day OCP-induced cells were fractionated by a series of chromatography steps (FIG. 1C). An in vitro H3NT cleavage assay was developed using a recombinant H3 (rH3) substrate and Western blot analysis with the H3CT antibody to track and isolate nuclear fractions containing H3NT protease activity. […] These fractions were combined and fractionated on a Q-sepharose column where, again, H3NT protease activity was largely restricted to two sequential fractions, BR100 and BR200. The fractions were combined for glycerol gradient sedimentation resulting in the final purification of fractions (#3-5) containing H3NT protease activity. […]
(§2) His-tagged proteins were generated in Rosetta 2 (DE3) pLysS E. coli (Novagen) and purified as previously described (Kim et al. 2008). […] Peptides were incubated with rMMP-9 at seven different concentrations (0, 25, 50, 100, 150, 200, and 250 µM) in cleavage buffer, the reactions stopped by adding 20 mM o-phenanthroline (Sigma) and peptide hydrolysis was measured by adding 5 mM fluorescamine followed by detection at λex 365 nm and λem 450 nm using a Plate Chameleon spectrofluorometer (Hidex). Kinetic parameters were determined by Michaelis-Menten analysis. […]

recombinant H3 (rH3) = assay: In vitro H3NT cleavage assay using recombinant proteases; type: biochemical; details: recombinant MMP-9, USP14, USP39 and DIM1 tested (FIG. 1G)
Text: as §1, §2

T1 sequence (P41245 108-730): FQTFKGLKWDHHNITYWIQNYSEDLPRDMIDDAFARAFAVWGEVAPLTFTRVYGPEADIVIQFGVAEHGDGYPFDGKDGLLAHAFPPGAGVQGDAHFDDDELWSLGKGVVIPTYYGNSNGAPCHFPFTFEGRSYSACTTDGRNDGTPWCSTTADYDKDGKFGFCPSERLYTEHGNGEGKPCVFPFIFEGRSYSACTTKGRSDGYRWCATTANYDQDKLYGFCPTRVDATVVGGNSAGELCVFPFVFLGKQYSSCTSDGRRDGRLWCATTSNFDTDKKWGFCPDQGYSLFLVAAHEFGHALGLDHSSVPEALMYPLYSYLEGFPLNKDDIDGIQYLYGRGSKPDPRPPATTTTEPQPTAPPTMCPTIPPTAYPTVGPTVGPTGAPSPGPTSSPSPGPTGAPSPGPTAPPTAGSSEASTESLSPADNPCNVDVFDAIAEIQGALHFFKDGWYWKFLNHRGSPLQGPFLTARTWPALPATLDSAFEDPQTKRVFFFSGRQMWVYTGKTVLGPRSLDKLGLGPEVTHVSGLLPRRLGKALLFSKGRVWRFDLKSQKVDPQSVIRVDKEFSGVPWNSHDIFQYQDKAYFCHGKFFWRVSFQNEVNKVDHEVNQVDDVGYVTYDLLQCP

Row | H3NT protease activity of purified fractions #3-5 [3] | Compound | H3NT proteolysis / cleavage in OCP-induced cells [1] | Nfatc1, Lif and Xpr1 activation (fold expression, normalized to β-actin) [2] | H3NT protease activity of recombinant proteases (recombinant H3 (rH3))
1 |  | CC1=NN(c2ccc(C(=O)O)cc2)C(=O)/C1=C\c1ccc(-c2cc(C)c(C)cc2[N+](=O)[O-])o1 [selective CBP/p300 inhibitor, C646] | sustained impairment of H3NT proteolysis |  | 
2 | abolished H3NT proteolysis | CCN(CC)Cc1cc(C)c(N(Cc2ccccc2)S(=O)(=O)c2ccc(OC)cc2)c(C(=O)NO)c1 [selective MMP-9 inhibitor] | continuous impairment of H3NT cleavage; also recorded: Ablation of H3NT cleavage | significantly impaired Nfatc1, Lif and Xpr1 activation | 
3 |  | rMMP-9: His-tagged recombinant MMP-9 (aa1115-730 as printed) purified from E. coli inclusion bodies and refolded |  |  | possessed H3NT protease activity

Source: patent US10761088B2, “Method for identifying histone tail proteolysis” (University of Southern California, priority 2016, dated 2020)
